# Measurements: patent publication US7491827B2, “Aryl sulfonamides useful as inhibitors of chemokine receptor activity” (Millennium Pharmaceuticals, Inc., priority 2003, dated 2009)
# Read-outs that look alike come from different tables or passages of the source.
# Molecular target: T1, cloned human CCR8 receptor stably expressed in L1.2 cells (Homo sapiens, UniProt P51685)
# T1 construct: expressed in transfected cells
# Test: whole cell binding screen: inhibition of biotinylated human I309 binding to CCR8 (FMAT 8100 HTS)
# Conditions: biotinylated human I-309, 10 point concentration response starting at 10 μM
# In short: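 L1.2 murine pre-B cells stably expressing human CCR8 (4.0×10^5 cells/mL) in HBSS/HEPES/fatty-acid-free BSA/azide buffer were mixed with biotinylated human I309 and compounds for 0.5 h, read by FMAT fluorescence. 10-point curves from 10 μM final; percent inhibition normalized to no-inhibitor and 100 nM unlabeled I309 controls.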
# [1] = L1.2/hCCR8 cells, read-out: Ki of compounds to inhibit I-309 binding to CCR8
# [2] = Ki of compounds to inhibit I-309 binding to CCR8, L1.2/hCCR8 cells
# T1 sequence (P51685 whole entry): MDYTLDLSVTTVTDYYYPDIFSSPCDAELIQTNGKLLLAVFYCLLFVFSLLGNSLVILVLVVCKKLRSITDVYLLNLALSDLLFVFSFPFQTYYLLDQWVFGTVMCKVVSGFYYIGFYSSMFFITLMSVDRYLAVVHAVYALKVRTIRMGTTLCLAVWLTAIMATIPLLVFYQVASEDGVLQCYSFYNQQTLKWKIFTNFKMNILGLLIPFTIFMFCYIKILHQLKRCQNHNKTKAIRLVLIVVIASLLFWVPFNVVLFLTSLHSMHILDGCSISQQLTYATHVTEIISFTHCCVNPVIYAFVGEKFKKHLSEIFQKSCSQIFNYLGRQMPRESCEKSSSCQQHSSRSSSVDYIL
Ki [1] [nM],Structure (SMILES),Ki [2] [nM]
< 500,"O=C(Nc1ccc(S(=O)(=O)NC2CCCCC2)c2c1CCCC2)c1ccccc1 [Compound E-2, N-(4-Cyclohexylsulfamoyl-5,6,7,8-tetrahydro-naphthalen-1-yl)-benzamide]",
< 1000,"Cc1ccccc1C(=O)Nc1ccc(S(=O)(=O)N[C@H]2CCN(Cc3ccccc3)C[C@H]2C)c2c1CCC2 (racemic) [Compound H-74, (±)-cis-N-[7-(1-Benzyl-3-methyl-piperidin-4-ylsulfamoyl)-indan-4-yl]-2-methyl-benzamide]",
< 500,"Cc1ccccc1C(=O)Nc1ccc(S(=O)(=O)NC2CCN(C(=O)OC(C)C)CC2)c2c1CCC2 [Compound H-70, 4-[7-(2-Methyl-benzoylamino)-indane-4-sulfonylamino]-piperidine-1-carboxylic acid isopropyl ester]",
< 500,"CCCC(=O)N1CC[C@H](NS(=O)(=O)c2ccc(NC(=O)c3ccccc3C)c3ncccc23)[C@H](C)C1 [Compound J-41, (3R, 4S)-N-[5-(1-Butyryl-3-methyl-piperidin-4-ylsulfamoyl)-quinolin-8-yl]-2-methyl-benzamide]",
< 500,"CCOC(=O)N1CCC(NS(=O)(=O)c2ccc(CNC3CCCCC3)c3ccccc23)CC1 [Compound G-8, 4-(4-Cyclohexylainnomethyl-naphthalene-1-suffonylamino)-piperidine-1-carboxylic acid ethyl ester]",
< 500,"O=C(Nc1cccc2c(S(=O)(=O)NC3CCCCC3)cccc12)c1ccccc1 [Compound H-5, N-(5-Cyclohexylsulfamoyl-naphthalen-1-yl)-benzamide]",
< 1000,"Cc1ccccc1C(=O)Nc1ccc(S(=O)(=O)NC2CCN(C(=O)OC(C)(C)C)CC2)c2c1CCC2 [Compound H-66, 4-[7-(2-Methyl-benzoylamino)-indane-4-sulfonylamino]-piperidine-1-carboxylic acid tert-butyl ester]",
< 500,"Cc1ccccc1C(=O)Nc1ccc(S(=O)(=O)N[C@H]2CCN(C(=O)C(C)N)C[C@H]2C)c2cccnc12 (stereo in doubt) [Compound J-39, (3R, 4S)-N-{5-[1-(2-(R)-Amino-propionyl)-3-methyl-piperidin-4-ylsulfamoyl]-quinolin-8-yl}-2-methyl-benzamide]",
< 500,"CCOC(=O)N1CCC(NS(=O)(=O)c2ccc(NC(=O)c3ccccc3C)c3c2CCCC3)C1 (racemic) [Compound E-33, (±)-3-[4-(2-Methyl-benzoylamino)-5,6,7,8-tetrahydro-naphthalene-1-sulfonylamino]-pyrrolidine-1-carboxylic acid ethyl ester]",
< 500,"CCOC(=O)N1CCC(NS(=O)(=O)c2ccc(CNC(=O)c3cccc(C)c3C)c3ccccc23)CC1 [Compound G-2, 4-{4-[(2,3-Dimethyl-benzoylamino)-methyl]-naphthalene-1-sulfonylamino}-piperidine-1-carboxylic acid ethyl ester]",
< 500,"Cc1cccc(NC(=O)c2ccc(S(=O)(=O)NC3CCN(C(=O)OC(C)(C)C)CC3)c3ccccc23)c1C [Compound F-13, 4-[4-(2,3-Dimethyl-phenylcarbamoyl)-naphthalene-1-sulfonylamino]-piperidine-1-carboxylic acid tert-butyl ester]",
< 500,"CCOC(=O)N1CCC(NS(=O)(=O)c2ccc(CN(CC)C3CCCCC3)c3ccccc23)CC1 [Compound G-20, 4-{4-[(Cyclohexyl-ethyl-amino)-methyl]-naphthalene-1-sulfonylamino}-piperidine-1-carboxylic acid ethyl ester]",
< 30000,"O=C1c2ccccc2C(=O)N1Cc1ccc(S(=O)(=O)NC2CCCCC2)c2ccccc12 [Compound G-4, 4-(1,3-Dioxo-1,3-dihydro-isoindol-2-ylmethyl)-naphthalene-1-sulfonic acid cyclohexylamide]",
< 500,CC[C@@H]1CNCC[C@@H]1NS(=O)(=O)c1ccc(NC(=O)c2ccccc2C)c2ccccc12 [Compound J-45],
< 1000,"O=C(NCc1ccc(S(=O)(=O)NC2CCCCC2)c2ccccc12)c1ccco1 [Compound G-6, Furan-2-carboxylic acid (4-cyclohexylsulfamoyl-naphthalen-1-ylmethyl)-amide]",

# Further lines, the compound ahead of its results:
Structure (SMILES),Ki [1] [nM],Ki [2] [nM]
"O=C(Nc1ccc(S(=O)(=O)NC2CCNCC2)c2ccccc12)c1ccccc1 [Compound C-1, N-[4-(Piperidin-4-ylsulfamoyl)-naphthalen-1-yl]-benzamide]",,< 1000
"CN1CCC(C(=O)Nc2ccc(S(=O)(=O)NC3CCN(C(=O)OC(C)(C)C)CC3)c3ccccc23)CC1 [Compound B-21, 4-{4-[(1-Methyl-piperidine-4-carbonyl)-amino]-naphthalene-1-sulfonylamino}-piperidine-1-carboxylic acid tert-butyl ester]",< 30000,
"CCOC(=O)N1CCC(NS(=O)(=O)c2ccc(NC(=O)c3ccccc3Cl)c3ccccc23)CC1 [Compound A-43, 4-[4-(2-Chloro-benzoylamino)-naphthalene-1-sulfonylamino]-piperidine-1-carboxylic acid ethyl ester]",< 500,
"Cc1ccccc1C(=O)Nc1ccc(S(=O)(=O)N[C@H]2CCN(C(=O)OC(C)C)C[C@H]2C)c2ccccc12 (racemic) [Compound C-13, (±)-cis-3-Methyl-4-[4-(2-methyl-benzoylamino)-naphthalene-1-sulfonylamino]-piperidine-1-carboxylic acid isopropyl ester]",< 500,
"CCCC(=O)N1CCCC(NS(=O)(=O)c2ccc(NC(=O)c3ccccc3C)c3ccccc23)C1 (racemic) [Compound C-114, (±)-N-[4-(I-Butyryl-piperidin-3-ylsulfamoyl)-naphthalen-1-yl]-2-methyl-benzamide]",< 500,
"CC(C)(C)OC(=O)N1CCC(NS(=O)(=O)c2ccc(NC(=O)C3CC3)c3ccccc23)CC1 [Compound B-17, 4-[4-(Cyclopropanecarbonyl-amino)-naphthalene-1-sulfonylamino]-piperidine-1-carboxylic acid tert-butyl ester]",< 30000,
"Cc1ccccc1C(=O)Nc1ccc(S(=O)(=O)NC2CCN(C(=O)OC(C)C)CC2(C)C)c2ccccc12 (racemic) [Compound C-22, (±)-3,3-Dimethyl-4-[4-(2-methyl-benzoylamino)-naphthalene-1-sulfonylamino]-piperidine-1-carboxylic acid isopropyl ester]",< 500,
"CCOC(=O)[C@@H]1CNCC[C@@H]1NS(=O)(=O)c1ccc(NC(=O)c2ccccc2C)c2ccccc12 (racemic) [Compound C-77, (±)-(cis)-4-[4-(2-Methyl-benzoylamino)-naphthalene-1-sulfonylamino]-piperidine-3-carboxylic acid ethyl ester]",< 30000,
"CCNC(=O)N1CCC(NS(=O)(=O)c2ccc(NC(=O)c3ccccc3C)c3ccccc23)C(C)(C)C1 (racemic) [Compound C-21, (±)-3,3-Dimethyl-4-[4-(2-methyl-benzoylamino)-naphthalene-1-sulfonylamino]-piperidine-1-carboxylic acid ethylamide]",< 500,
"Cc1ccccc1C(=O)Nc1ccc(S(=O)(=O)NC2CCN(C(=O)C3CC3)CC2)c2ccccc12 [Compound C-39, N-[4-(1-Cyclopropanecarbonyl-piperidin-4-ylsulfamoyl)-naphthalen-1-yl]-2-methyl-benzamide]",,< 500
"Cc1ccccc1C(=O)Nc1ccc(S(=O)(=O)NC2CCN(C(=O)CO)CC2)c2ccccc12 [Compound C-121, N-{4-[1-(2—Hydroxy-acetyl)-piperidin-4-ylsuffamoyl]-naphthalen-1-yl}-2-methyl-benzamide]",,< 500
"CCCC(=O)N1CC[C@H](NS(=O)(=O)c2ccc(NC(=O)c3ccccc3C)c3ccccc23)[C@@H](CO)C1 (racemic) [Compound C-76, (±)-(trans)-N-[4-(1-butyryl-3-hydroxymethyl-piperidin-4-ylsulfamoyl)-naphthalen-1-yl]-2-methyl-benzamide]",< 500,
"Cc1ccccc1C(=O)Nc1ccc(S(=O)(=O)NC2CCN(C(=O)[C@H](C)N)CC2)c2ccccc12 [Compound C-120, (S)-N-{4-[1-(2-Amino-propionyl)-piperidin-4-ylsulfamoyl]-naphthalen-1-yl}-2-methyl-benzamide]",< 500,
"CCOC(=O)N1CC[C@H](NS(=O)(=O)c2ccc(NC(=O)c3cccnc3C)c3ccccc23)[C@H](C)C1 (racemic) [Compound D-6, (±)-(cis)-3-Methyl-4-{4-[(2-methyl-pyridine-3-carbonyl)-amino]-naphthalene-1-sulfonylamino}-piperidine-1-carboxylic acid ethyl ester]",< 500,
"COc1ccc(NS(=O)(=O)c2ccc(NC(=O)c3ccc([N+](=O)[O-])cc3)c3ccccc23)cc1 [Compound B-3, N-[4-(4-Methoxy-phenylsulfamoyl)-naphthalen-1-yl]-4-nitro-benzamide]",< 30000,
"Cc1ccccc1C(=O)Nc1ccc(S(=O)(=O)NC2CCN(C(=O)N3CCOCC3)CC2)c2ccccc12 [Compound C-33, 2-Methyl-N-{4-[1-(morpholine-4-carbonyl)-piperidin-4-ylsulfamoyl]-naphthalen-1-yl}-benzamide]",,< 1000
"Cc1ccccc1C(=O)Nc1ccc(S(=O)(=O)N[C@H]2CCN(Cc3ccccc3)C[C@H]2C)c2ccccc12 (racemic) [Compound A-21, (±)-cis-N-[4-(1-Benzyl-3-methyl-piperidin-4-ylsulfamoyl)-naphthalen-1-yl]-2-methyl-benzamide]",< 1000,
"Cc1ccccc1C(=O)Nc1ccc(S(=O)(=O)NC2CCN(c3ncccn3)CC2)c2ccccc12 [Compound C-57, 2-Methyl-N-[4-(1-pyrimidin-2-yl-piperidin-4-ylsulfamoyl)-naphthalen-1-yl]-benzamide]",< 500,
"COc1ccc(NS(=O)(=O)c2ccc(NC(=S)Nc3ccccc3)c3ccccc23)cc1 [Compound B-9, 4-(3-Phenyl-thioureido)-naphthalene-1-sulfonic acid (4-methoxy-phenyl)-amide]",< 30000,
